Measured values taken from patent US7517857B2, “Immune-modulating peptide” (POSCO, priority 2002, dated 2009).
Where a SMILES comes first, the peptide text is derived from it. Where no end group is shown, it is not given here. [ ]: non-standard residue; d: D form.

Tests used:
FPRL1 = target: T1, FPRL1 (Homo sapiens, UniProt P25090); assay: Displacement of 125I-labeled WKYMVm binding to FPRL1 (FPRL1-expressing RBL-2H3 cells); conditions: FIG. 2B
T1 construct: expressed in transfected cells; host or cells: RBL-2H3 (rat basophilic leukemia) cells, G418-selected
T1 sequence (P25090 1-351): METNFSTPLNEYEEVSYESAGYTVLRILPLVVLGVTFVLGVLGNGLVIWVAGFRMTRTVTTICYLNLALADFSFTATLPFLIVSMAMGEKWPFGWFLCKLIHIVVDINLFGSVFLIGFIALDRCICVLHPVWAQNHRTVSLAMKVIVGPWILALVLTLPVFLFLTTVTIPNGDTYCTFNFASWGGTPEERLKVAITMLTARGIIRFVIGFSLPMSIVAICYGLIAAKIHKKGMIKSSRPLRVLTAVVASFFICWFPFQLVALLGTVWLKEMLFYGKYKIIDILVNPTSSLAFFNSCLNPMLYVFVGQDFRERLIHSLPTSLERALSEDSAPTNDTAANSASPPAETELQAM
Procedure: (§1) From the finding that some of the peptides (WKGMVm (SEQ ID NO: 1), WKRMVm (SEQ ID NO: 11), D-Met^6 substituted peptides) could not induce a cytosolic calcium increase, it was checked whether the peptides can bind to FPR or not. Displacement of ^125I-labeled WKYMVm binding to FPR or FPRL1 by the peptides was monitored. FPR-expressing RBL-2H3 cells were incubated with [^125I] WKYMVm in the absence or presence of increasing amounts of unlabeled WKYMVm or the peptides of SEQ ID NOs: 1 to 24.
(§2) A ligand binding analysis was performed as modified from the previous report (16). The radioiodinated WKYMVm (^125I-labeled) was purchased from NEN Lifesciences (Boston, Mass.). Briefly, FPR- or FPRL1-expressing RBL-2H3 cells were seeded into 1×10^5 cells per well of a 24-well plate and cultured overnight. After blocking the cells with a blocking buffer (33 mM HEPES, pH 7.5, 0.1% BSA in RPMI) for 2 hr, a single concentration of ^125I-labeled WKYMVm was added to cells with a binding buffer (PBS containing 0.1% BSA) in the absence or presence of 50 μM unlabelled peptides and incubated for 3 hr at 4° C. with continuous shaking. Then the samples were washed 5 times with ice-cold binding buffer, and 200 μl of lysis buffer (20 mM Tris, pH 7.5, 1% Triton X-100) was added to each well. After 20 min of lysis at room temperature, the lysates were collected. Bound ^125I-labeled WKYMVm was measured for radioactivity for a γ-ray counter.

FPR [1] = target: T2, FPR (Homo sapiens, UniProt P21462); assay: Displacement of 125I-labeled WKYMVm binding to FPR (FPR-expressing RBL-2H3 cells); conditions: FIG. 2A
T2 construct: expressed in transfected cells; host or cells: RBL-2H3 (rat basophilic leukemia) cells, G418-selected
T2 sequence (P21462 1-350): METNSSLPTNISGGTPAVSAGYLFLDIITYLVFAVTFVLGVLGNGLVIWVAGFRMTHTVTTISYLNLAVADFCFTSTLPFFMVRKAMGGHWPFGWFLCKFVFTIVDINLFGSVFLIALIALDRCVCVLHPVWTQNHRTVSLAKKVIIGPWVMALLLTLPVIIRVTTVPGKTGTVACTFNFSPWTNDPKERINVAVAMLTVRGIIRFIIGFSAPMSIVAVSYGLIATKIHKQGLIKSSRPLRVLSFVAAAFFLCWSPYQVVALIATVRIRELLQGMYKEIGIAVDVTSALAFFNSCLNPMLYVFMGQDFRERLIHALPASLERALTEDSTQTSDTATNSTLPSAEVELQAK
Procedure: as §1, §2

FPR [2] = target: T2, FPR; assay: [Ca2+]i increase in FPR-expressing RBL-2H3 cells (fura-2); format: cell-based; conditions: for EC50 (nM), intracellular calcium increase: fura-2 loaded
Procedure: FPR-expressing RBL-2H3 cells were stimulated with 10 μM of each peptide, and [Ca^2+]i was determined. The level of [Ca^2+]i was determined fluorometrically by Grynkiewicz's method using fura-2/AM (15). Briefly, prepared cells were incubated with 3 μM fura-2/AM at 37° C. for 50 min in a fresh serum-free RPMI 1640 medium under continuous stirring. 2×10^6 cells were aliquoted for each assay in Ca^2+-free Locke's solution (154 mM NaCl, 5.6 mM KCl, 1.2 mM MgCl2, 5 mM HEPES, pH 7.3, 10 mM glucose, and 0.2 mM EGTA). Fluorescence changes at the dual excitation wavelengths of 340 nm and 380 nm and the emission wavelength of 500 nm were measured, and the calibrated fluorescence ratio was translated into [Ca^2+]i. The peak level of the increased [Ca^2+]i was monitored.

FPR [3] = target: T2, FPR; assay: Akt phosphorylation in FPR-expressing RBL-2H3 cells (immunoblot); format: cell-based; conditions: 10 μM peptides 2 min (WKYMVm time course 1 μM)
Procedure: It is well known that activation of chemoattractant receptors induces Akt activation via PI3K (19). Stimulation of cells with the peptides, electrophoresis and immunoblot analysis were performed according to the same method as in Example 5.
FPR- or FPRL1-expressing RBL-2H3 cells were stimulated with 1 μM WKYMVm for various periods of time (FIG. 4A). Two cells were preincubated with a vehicle or 100 ng/ml of PTX (24 hr), 50 μM of LY294002 (15 min), 5 μM of GFX (15 min), 10 μM BAPTA/AM (60min), or 50 μM PD98059 (60 min) prior to treatment with 1 μM of WKYMVm (FIG. 4B). FPR- and FPRL1-expressing RBL2H3 cells were stimulated with 10 μM of WKYMVm and the present peptides for 2 min or 5 min, respectively (FIG. 4C). Each sample (30 μg of protein) was subjected to 10% SDS-PAGE and phosphorylated Akt was determined by immunoblot analysis with an anti-phospho-Akt antibody. A western blot analysis with an anti-Akt antibody was performed to confirm that the same amounts of samples were used for the experiments. The results are shown FIGS. 4A to 4C. Results of FIGS. 4A to 4C are the representative of 3 independent experiments.

| Compound | inhibition of [^125I] WKYMVm binding (FPRL1) | inhibition of [^125I] WKYMVm binding (FPR [1]) | [Ca^2+]i increasing activity (FPR [2]) | EC50 (nM), intracellular calcium increase (FPR [2]) | Akt phosphorylation (FPR [3]) | concentration showing maximal [Ca^2+]i increase activity (FPR [2]; data not shown) |
| --- | --- | --- | --- | --- | --- | --- |
| CSCC[C@H](NC(=O)CNC(=O)[C@H](CCCCN)NC(=O)[C@@H](N)Cc1c[nH]c2ccccc12)C(=O)N[C@H](C(=O)N[C@H](CCSC)C(N)=O)C(C)C [WKGMVm-NH2, Trp-Lys-Gly-Met-Val-D-Met-NH2] (H-WKGMV[dM]-NH2; N-terminus assumed) | inhibited binding of [^125I] WKYMVm in a concentration-dependent manner | inhibited binding of [^125I] WKYMVm in a concentration-dependent manner | did not effect a [Ca^2+]i increase until 20 μM treatment | inactive | caused Akt phosphorylation |  |
| CSCC[C@H](NC(=O)[C@H](CCCNC(=N)N)NC(=O)[C@H](CCCCN)NC(=O)[C@@H](N)Cc1c[nH]c2ccccc12)C(=O)N[C@H](C(=O)N[C@H](CCSC)C(N)=O)C(C)C [WKRMVm-NH2, Trp-Lys-Arg-Met-Val-D-Met-NH2] (H-WKRMV[dM]-NH2; N-terminus assumed) | inhibited binding of [^125I] WKYMVm in a concentration-dependent manner | inhibited binding of [^125I] WKYMVm in a concentration-dependent manner |  | inactive | caused Akt phosphorylation |  |
| CSCC[C@H](NC(=O)[C@H](Cc1ccc(O)cc1)NC(=O)[C@H](CCCCN)NC(=O)[C@@H](N)Cc1c[nH]c2ccccc12)C(=O)N[C@H](C(=O)N[C@H](CCSC)C(N)=O)C(C)C [WKYMVm-NH2, Trp-Lys-Tyr-Met-Val-D-Met-NH2, reference compound] | inhibited binding of [^125I] WKYMVm in a concentration-dependent manner | inhibited binding of [^125I] WKYMVm in a concentration-dependent manner |  | inactive | caused Akt phosphorylation | around 300 nM |
| WKYMVE-NH2 [WKYMVE-NH2, Trp-Lys-Tyr-Met-Val-Glu-NH2] |  |  |  | inactive | caused Akt phosphorylation |  |
| WKYMVR-NH2 [WKYMVR-NH2, Trp-Lys-Tyr-Met-Val-Arg-NH2] |  |  |  | inactive | caused Akt phosphorylation |  |
